Columns and labels:
C. elegans = assay: Confocal microscopy of mitochondria in body wall muscle (pmyo-3::mito::GFP reporter); settings: in vivo
Protocol: Confocal Microscopy and Image Processing Worms were immobilized with 6 mM solution of tetramisole hydrochloride (Sigma, Buchs, Switzerland) in M9 and mounted on 6% agarose pads on glass slides. Images of worms were acquired using Zeiss LSM 700 Upright confocal microscope (Carl Zeiss AG, Oberkochen, Germany) under non-saturating exposure conditions. All the snapshots were taken from the same part of C. elegans: muscles from the upper part of the worm, excluding the regions of oesophagus and vulva. For each condition multiple worms were observed and imaged. Image processing was performed with the Fiji software. One of the critical issues during the imaging process was the position of the worm, as it influences the level of background. For the uniformity of the represented images, contrast and brightness were adjusted in order, to eliminate the undesirable background signal. Neither of these manipulations was affecting the mitochondrial shape. Tracing of the mitochondrial network contour was done by the use of Gaussian blur filter followed by the application of Laplacian operator.

HEK293T cells = assay: Nampt, PARP activity, glycolysis and ATP in NR-treated HEK293T cells; assay type: cell-based, human
Protocol: mRNA and mtDNA Analysis. Total RNA was prepared using TRIzol (Invitrogen) according to the manufacturer's instructions. RNA was treated with DNase, and 2 μg of RNA was used for reverse transcription (RT). cDNA was purified on QIAquick PCR cleanup columns (Qiagen, Valencia, Calif., USA). 50× diluted cDNA was used for RT-quantitative PCR (RT-VCR) VCR) reactions (Bai et al., 2007). The RT-qPCR reactions were performed using the Light-Cycler system (Roche Applied Science) and a qPCR Supermix (Qiagen) with the primers for mice summarized in Table 1 and 4, and with the primers for worms summarized on Table 7. mtDNA quantification was performed as described (Lagouge et al., 2006) with the primers indicated in Table 2 and 5.
Immunoprecipitation, SDS-PAGE, Western Blotting. […] Reactions were developed by enhanced chemiluminescence (Amersham, Little Chalfont, UK), PGC-1α, FOXO1 and Ndufa9 acetylation levels were analyzed by immunoprecipitation from cellular or nuclear lysates of tissues with anti-PGC-1α (Millipore), anti-FOXO1 (Cell Signaling, Danvers, Mass., USA) and anti-Ndufa9 (Abcam) antibody followed by Western blot using an acetyl-lysine antibody (Cell Signaling) that was normalized to total PGC-1a/FOXO1/Ndufa9 levels (Lagouge et al., 2006; Rodgers et al., 2005). […] All blots were quantified by densitometry using ImageJ software. […]

## NC(=O)c1ccc[n+]([C@@H]2O[C@H](CO)[C@@H](O)[C@H]2O)c1 [NR, nicotinamide riboside]
C. elegans
  mitochondrial content in body wall muscle: increase muscle mitochondrial content
  mitochondrial morphology in body wall muscle: affect mitochondrial morphology
HEK293T cells
  cellular glycolytic rates or ATP levels: not linked to changes in cellular glycolytic rates or ATP levels
HEK293T cells; 0.5 mM, 24 hrs
  Nampt mRNA or protein content: could not see any change

— patent US10709724B2, “Methods of treating mitochondrial dysfunction” (Ecole Polytechnique Federale de Lausanne (EPFL), priority 2011, dated 2020)
